Experimental findings from ChEMBL document CHEMBL1151013, “The chemical evolution of N,N-dimethyl-2-[5-(1,2,4-triazol-4-yl)-1H-indol-3-yl]ethylamine (L-741,604) and analogues: Potent and selective agonists for 5-HT1D receptors” (Bioorg Med Chem Lett, 1996) are described below.

The structures appear in SMILES notation. pEC50, pIC50: −log10 of the molar value.

Data set [1] in a line: Time required to reach maximum concentration in rat plasma. In kind it is ADME, organism-based.
The nature of data set [2]: Plasma clearance in rat was determined. It is filed as ADME, organism-based. The following applies: read-out: Clp.
For data set [3], the species on record is Rattus norvegicus. As to the kind of experiment: Maximum fall in carotid flow in rat. The following applies: in vivo. In kind it is organism-based.
Data set [4] can be described thus: Half-life in rat plasma was determined. It is filed as ADME, organism-based.
The species named for another data set is Canis familiaris. The experiment in a line: The plasma concentration producing half maximal fall in carotid flow in dogs. In kind it is functional, organism-based. The note with it: Canis lupus familiaris.
Data set [5] can be described thus: Maximum concentration in rat plasma was determined. In kind it is ADME, organism-based.
Another data set is filed under the species Oryctolagus cuniculus. As to the kind of experiment: Compound was tested for agonist potency from plots of percentage 5-HT (1 uM) response against concentration of the agonist in white rabbit saphenous vein. In kind it is functional, organism-based.
For data set [6], the species on record is Rattus norvegicus. As to the kind of experiment: Inhibition of extravation produced in the dura meter by electrical stimulatio of trigeminal ganglion in rat. It is filed as functional, organism-based.

The Tmax is the time at which the peak concentration occurs. In general, half-life refers to the time needed for the level to fall by half in the phase considered. By pIC50 is commonly meant the IC50 on a negative log10 scale, so that one unit is a factor of ten. A high value points to a small IC50. The Cmax is the peak of the concentration-time curve. A word on the pEC50: it is −log10 of the EC50, conventionally taken in molar units. The low end stands for a high EC50, the high end for a low EC50.

As for `CNS(=O)(=O)Cc1ccc2[nH]cc(CCN(C)C)c2c1`, the Tmax in data set [1] amounted to 4 h. In data set [2], the clearance was found to be 69 mL/min/kg. Moreover, the “Carotid Flow Decrease” value in the data set filed under Rattus norvegicus [3] came out at 44%. The molecule further had a half-life in data set [4] of 1.1 h. In the data set listed under Canis familiaris, this molecule gave a pIC50 of 7.31. Also, in data set [5], the Cmax was 74 ng/mL.

On to `CN(C)CCc1c[nH]c2ccc(-n3cnnc3)cc12`, for which the Tmax in data set [1] was 1 h. Also, in data set [2], the clearance came to 37 mL/min/kg. In the data set filed under Oryctolagus cuniculus, this molecule showed a pEC50 of 7.49. The molecule further had a pIC50 in the data set listed under Rattus norvegicus [6] of 7.89. In addition, the “Carotid Flow Decrease” value in the data set filed under Rattus norvegicus [3] amounted to 27%. The half-life in data set [4] is 1.3 h. Further, in data set [5], the Cmax was 83 ng/mL.

`CN1CCC(c2c[nH]c3ccc(-n4cnnc4)cc23)CC1`: the time of peak concentration (Tmax) in data set [1] is 3 h. In data set [2], the clearance stood at 48 mL/min/kg. Also, in the data set listed under Oryctolagus cuniculus, the pEC50 was 7.41. Moreover, the pIC50 in the data set filed under Rattus norvegicus [6] is 7.16; in the data set filed under Canis familiaris, 8.16. The “Carotid Flow Decrease” value in the data set listed under Rattus norvegicus [3] was 20%. This molecule also showed a half-life in data set [4] of 2 h. In data set [5], this molecule returned a Cmax of 53 ng/mL.

`CN(C)CCc1c[nH]c2ccc(-n3cncn3)cc12` had a pEC50 in the data set listed under Oryctolagus cuniculus of 7.21.

For `CN(C)CCc1c[nH]c2ccc(Cn3cncn3)cc12` [RIZATRIPTAN], the Tmax in data set [1] stood at 0.75 h. Further, the clearance in data set [2] stood at 79 mL/min/kg. Also, in the data set listed under Rattus norvegicus [3], the “Carotid Flow Decrease” value was 76%. Moreover, the half-life in data set [4] was 0.8 h. Further, in data set [5], the Cmax was found to be 271 ng/mL.
